Laboratory results from patent US11827627B2, “N-(hydroxyalkyl (hetero)aryl) tetrahydrofuran carboxamides as modulators of sodium channels” (VERTEX PHARMACEUTICALS INCORPORATED, priority 2021, dated 2023).

The compounds below were run against human NaV 1.8 (Homo sapiens, UniProt Q9Y5Y9) (assay: E-VIPR assay detecting and measuring NaV inhibition properties). Conditions: HEK cells expressing a truncated form of human NaV 1.8; electrical stimulation, membrane potential FRET dyes.
Type: cell-based
Source text: E-VIPR Assay Detecting and Measuring NaV Inhibition Properties
Sodium ion channels are voltage-dependent proteins that can be activated by inducing membrane voltage changes by applying electric fields. The electrical stimulation instrument and methods of use, referred to as E-VIPR, are described in International Publication No. WO 2002/008748 A3 and C.-J. Huang et al. Characterization of voltage-gated sodium channel blockers by electrical stimulation and fluorescence detection of membrane potential, 24 Nature Biotech. 439-46 (2006), both of which are incorporated by reference in their entirety. The instrument comprises a microtiter plate handler, an optical system for exciting the coumarin dye while simultaneously recording the coumarin and oxonol emissions, a waveform generator, a current- or voltage-controlled amplifier, and parallel electrode pairs that are inserted into assay plate wells. Under integrated computer control, this instrument passes user-programmed electrical stimulus protocols to cells within the wells of the microtiter plate.
16-20 hours prior to running the assay on E-VIPR, HEK cells expressing a truncated form of human NaV 1.8 with full channel activity were seeded into microtiter 384-well plates, pre-coated with matrigel, at a density of 25,000 cells per well. 2.5-5% KIR2.1 Bacmam virus was added to the final cell suspension before seeding into cell plates. HEK cells were grown in Dulbecco's Modified Eagle's Medium (DMEM) supplemented with 10% FBS (Fetal Bovine Serum, qualified; Sigma #F4135), 1% NEAA (Non-Essential Amino Acids, Gibco #11140), 1% HEPES (Gibco #15630), 1% Pen-Strep (Penicillin-Streptomycin; Gibco #15140) and 5 μg/ml Blasticidin (Gibco #R210-01). Cells were expanded in vented cap cell culture flasks, with 90-95% humidity and 5% CO2.
Reagents and Stock Solutions:
100 mg/mL Pluronic F-127 (Sigma #P2443), in dry DMSO
Compound Plates: Corning 384-well Polypropylene Round Bottom #3656
Cell Plates: 384-well tissue culture treated plates (Greiner #781091-2B)
2.5-5% KIR 2.1 Bacmam virus (produced in-house), prepared as described in Section 3.3 of J. A. Fornwald et al., Gene Expression in Mammalian Cells Using BacMam, a Modified Baculovirus System, 1350 Methods in Molecular Biology 95-116 (2016), the entire contents of which are incorporated by reference. The concentration used can be dependent on viral titer of each batch.
5 mM DiSBAC6(3), a voltage sensitive oxonol acceptor (CAS number 169211-44-3; 5-[3-(1,3-dihexylhexahydro-4,6-dioxo-2-thioxo-5-pyrimidinyl)-2-propen-1-ylidene]-1,3-dihexyldihydro-2-thioxo-4,6(1H,5H)-pyrimidinedione), in dry DMSO. The preparation of DiSBAC6(3) is analogous to that of DiSBAC4(3) as described in Voltage Sensing by Fluorescence Resonance Energy Transfer in Single Cells, Gonzalez, J. E. and Tsien, R. Y. (1995) Biophys. J. 69, 1272-1280.
5 mM CC2-DMPE, a commercially available membrane-bound coumarin phospholipid FRET donor (ThermoFisher Scientific catalog number K1017, CAS number 393782-57-5; tetradecanoic acid, 1,1′-[(1R)-1-[8-(6-chloro-7-hydroxy-2-oxo-2H-1-benzopyran-3-yl)-3-hydroxy-3-oxido-8-oxo-2,4-dioxa-7-aza-3-phosphaoct-1-yl]-1,2-ethanediyl]ester) was prepared in dry DMSO. See also, Improved indicators of cell membrane potential that use fluorescence resonance energy transfer, Gonzalez, J. E. and Tsien, R. Y. (1997) Chem. Biol. 4, 269-277.
Voltage Assay Background Suppression Compound (VABSC-1) is prepared in H2O (89-363 mM, range used to maintain solubility)
Human Serum (HS, Millipore #S1P1-01KL, or Sigma SLBR5469V and SLBR5470V as a 50%/50% mixture, for 25% assay final concentration)
Bath 1 Buffer: • Sodium Chloride 160 mM (9.35 g/L), Potassium Chloride, 4.5 mM (0.335 g/L), Glucose 10 mM (1.8 g/L), Magnesium Chloride (Anhydrous) 1 mM (0.095 g/L), Calcium Chloride 2 mM (0.222 g/L), HEPES 10 mM (2.38 g/L) in water. […]

human NaV 1.8, sequence (Q9Y5Y9 126-1722 limits assumed): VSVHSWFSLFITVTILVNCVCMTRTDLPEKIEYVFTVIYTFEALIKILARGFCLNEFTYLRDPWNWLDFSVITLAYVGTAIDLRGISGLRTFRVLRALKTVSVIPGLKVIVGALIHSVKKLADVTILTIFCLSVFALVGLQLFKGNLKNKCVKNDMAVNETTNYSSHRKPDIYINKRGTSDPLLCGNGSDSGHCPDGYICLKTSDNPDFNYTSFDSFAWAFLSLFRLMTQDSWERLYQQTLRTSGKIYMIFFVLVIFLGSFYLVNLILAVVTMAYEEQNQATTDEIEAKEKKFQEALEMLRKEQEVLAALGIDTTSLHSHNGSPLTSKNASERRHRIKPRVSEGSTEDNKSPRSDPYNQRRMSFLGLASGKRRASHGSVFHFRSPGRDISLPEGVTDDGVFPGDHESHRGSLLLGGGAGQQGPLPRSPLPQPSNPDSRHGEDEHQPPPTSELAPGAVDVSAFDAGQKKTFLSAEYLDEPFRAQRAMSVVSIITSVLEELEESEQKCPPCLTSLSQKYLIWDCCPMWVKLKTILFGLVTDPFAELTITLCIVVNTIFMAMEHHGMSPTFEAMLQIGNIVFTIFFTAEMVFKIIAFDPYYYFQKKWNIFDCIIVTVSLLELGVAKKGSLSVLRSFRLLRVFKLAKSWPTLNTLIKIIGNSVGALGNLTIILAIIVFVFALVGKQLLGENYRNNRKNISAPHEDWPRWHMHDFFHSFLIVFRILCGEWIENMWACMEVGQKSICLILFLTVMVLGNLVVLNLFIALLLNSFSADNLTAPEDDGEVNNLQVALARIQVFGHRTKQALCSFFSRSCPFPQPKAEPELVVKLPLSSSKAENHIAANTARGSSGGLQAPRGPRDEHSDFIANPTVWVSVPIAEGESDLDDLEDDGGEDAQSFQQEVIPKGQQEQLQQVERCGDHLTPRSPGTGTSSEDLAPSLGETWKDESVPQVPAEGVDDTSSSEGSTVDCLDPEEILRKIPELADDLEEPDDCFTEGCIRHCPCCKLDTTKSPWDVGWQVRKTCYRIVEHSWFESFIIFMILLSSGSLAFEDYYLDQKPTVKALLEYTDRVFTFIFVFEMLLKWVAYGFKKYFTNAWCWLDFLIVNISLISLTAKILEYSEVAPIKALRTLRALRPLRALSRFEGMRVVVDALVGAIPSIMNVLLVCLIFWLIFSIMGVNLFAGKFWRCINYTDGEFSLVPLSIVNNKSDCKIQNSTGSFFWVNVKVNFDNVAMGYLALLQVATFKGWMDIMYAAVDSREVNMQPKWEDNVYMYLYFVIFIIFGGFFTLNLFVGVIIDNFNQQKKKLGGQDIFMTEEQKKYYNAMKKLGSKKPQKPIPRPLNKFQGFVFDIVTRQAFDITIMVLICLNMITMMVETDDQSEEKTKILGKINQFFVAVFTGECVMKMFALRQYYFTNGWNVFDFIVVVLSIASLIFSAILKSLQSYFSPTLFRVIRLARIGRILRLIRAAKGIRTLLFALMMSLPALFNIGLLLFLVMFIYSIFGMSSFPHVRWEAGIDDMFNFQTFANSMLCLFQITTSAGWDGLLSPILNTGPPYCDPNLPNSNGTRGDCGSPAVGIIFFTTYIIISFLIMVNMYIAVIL

Row | IC50 [µM] | SMILES
1 | 0.1 to 1 | COc1c([C@@H]2C[C@](C)(C(F)(F)F)O[C@H]2C(=O)Nc2ccc([C@@H](O)CO)nc2)ccc(F)c1F (relative stereo) [Compound 24, rel-(2R,3S,5R)-3-(3,4-difluoro-2-methoxyphenyl)-N-(6-((R*)-1,2-dihydroxyethyl)pyridin-3-yl)-5-methyl-5-(trifluoromethyl)tetrahydrofuran-2-carboxamide]
2 | ≥ 1 | COc1c([C@H]2C[C@@](C)(C(F)(F)F)O[C@@H]2C(=O)Nc2ccc([C@@H](O)CO)nc2)ccc(F)c1F (relative stereo) [Compound 25, rel-(2S,3R,5S)-3-(3,4-difluoro-2-methoxyphenyl)-N-(6-((R*)-1,2-dihydroxyethyl)pyridin-3-yl)-5-methyl-5-(trifluoromethyl)tetrahydrofuran-2-carboxamide]
3 | 0.01 to 0.1 | COc1c([C@H]2[C@H](C(=O)Nc3ccc(C(C)O)nc3)O[C@@](C)(C(F)(F)F)[C@H]2C)ccc(F)c1C(F)F (relative stereo) [Compound 56, rel-(2R,3S,4S,5R)-3-(3-(difluoromethyl)-4-fluoro-2-methoxyphenyl)-N-(6-(1-hydroxyethyl)pyridin-3-yl)-4,5-dimethyl-5-(trifluoromethyl)tetrahydrofuran-2-carboxamide]
4 | 0.01 to 0.1 | COc1c([C@H]2[C@H](C(=O)Nc3ccc([C@H](O)CO)[n+]([O-])c3)O[C@@](C)(C(F)(F)F)[C@H]2C)ccc(F)c1C (relative stereo) [Compound 59, rel-2-((S*)-1,2-dihydroxyethyl)-5-((2R,3S,4S,5R)-3-(4-fluoro-2-methoxy-3-methylphenyl)-4,5-dimethyl-5-(trifluoromethyl)tetrahydrofuran-2-carboxamido)pyridine 1-oxide]
5 | < 0.01 | COc1c([C@H]2[C@H](C(=O)Nc3ccc([C@@H](O)CO)nc3)O[C@@](C)(C(F)(F)F)[C@H]2C)ccc(F)c1F (single isomer, unassigned) [Compound 1]
6 | < 0.01 | COc1c([C@H]2[C@H](C(=O)Nc3ccc([C@H](O)CO)nc3)O[C@@](C)(C(F)(F)F)[C@H]2C)ccc(F)c1F (single isomer, unassigned) [Compound 2]
7 | < 0.01 | COc1c([C@H]2[C@H](C(=O)Nc3ccc([C@@H](O)[C@@H](C)O)nc3)O[C@@](C)(C(F)(F)F)[C@H]2C)ccc(F)c1F (single isomer, unassigned) [Compound 3, rel-(2R*,3S*,4S*,5R*)-3-(3,4-difluoro-2-methoxyphenyl)-N-(6-((1R,2R)-1,2-dihydroxypropyl)pyridin-3-yl)-4,5-dimethyl-5-(trifluoromethyl)tetrahydrofuran-2-carboxamide]
8 | < 0.01 | COc1c([C@H]2[C@H](C(=O)Nc3ccc([C@H](O)[C@H](C)O)nc3)O[C@@](C)(C(F)(F)F)[C@H]2C)ccc(F)c1F (single isomer, unassigned) [Compound 4, rel-(2R*,3S*,4S*,5R*)-3-(3,4-difluoro-2-methoxyphenyl)-N-(6-((1S,2S)-1,2-dihydroxypropyl)pyridin-3-yl)-4,5-dimethyl-5-(trifluoromethyl)tetrahydrofuran-2-carboxamide]
9 | < 0.01 | COc1c(C2C(C(=O)Nc3cnc(C(O)CO)nc3)OC(C)(C(F)(F)F)C2C)ccc(F)c1F (single isomer, unassigned) [Compound 11]
10 | 0.01 to 0.1 | COc1c(C2C(C(=O)Nc3cnc(C(O)CO)nc3)OC(C)(C(F)(F)F)C2C)ccc(F)c1F (single isomer, unassigned) [Compound 12]
11 | < 0.01 | COc1c([C@H]2[C@H](C(=O)Nc3ccc(C(O)CF)nc3)O[C@@](C)(C(F)(F)F)[C@H]2C)ccc(F)c1F (single isomer, unassigned) [Compound 16, rel-(2R*,3S*,4S*,5R*)-3-(3,4-difluoro-2-methoxyphenyl)-N-(6-(2-fluoro-1-hydroxyethyl)pyridin-3-yl)-4,5-dimethyl-5-(trifluoromethyl)tetrahydrofuran-2-carboxamide]
12 | 0.01 to 0.1 | COc1c(C2C(C(=O)Nc3ccc(C(O)CF)nc3)OC(C)(C(F)(F)F)C2C)ccc(F)c1F (single isomer, unassigned) [Compound 17, rel-(2R*,3S*,4S*,5R*)-3-(3,4-difluoro-2-methoxyphenyl)-N-(6-(2-fluoro-l-hydroxyethyl)pyridin-3-yl)-4,5-dimethyl-5-(trifluoromethyl)tetrahydrofuran-2-carboxamide]
13 | 0.01 to 0.1 | COCC(O)c1ccc(NC(=O)[C@@H]2O[C@@](C)(C(F)(F)F)[C@@H](C)[C@H]2c2ccc(F)c(F)c2OC)cn1 (single isomer, unassigned) [Compound 20, rel-(2R*,3S*,4S*,5R*)-3-(3,4-difluoro-2-methoxyphenyl)-N-(6-(1-hydroxy-2-methoxyethyl)pyridin-3-yl)-4,5-dimethyl-5-(trifluoromethyl)tetrahydrofuran-2-carboxamide]
14 | 0.01 to 0.1 | COCCC(O)c1ccc(NC(=O)[C@@H]2O[C@@](C)(C(F)(F)F)[C@@H](C)[C@H]2c2ccc(F)c(F)c2OC)cn1 (single isomer, unassigned) [Compound 22, rel-(2R*,3S*,4S*,5R*)-3-(3,4-difluoro-2-methoxyphenyl)-N-(6-(1-hydroxy-3-methoxypropyl)pyridin-3-yl)-4,5-dimethyl-5-(trifluoromethyl)tetrahydrofuran-2-carboxamide]
15 | 0.1 to 1 | COCCC(O)c1ccc(NC(=O)[C@@H]2O[C@@](C)(C(F)(F)F)[C@@H](C)[C@H]2c2ccc(F)c(F)c2OC)cn1 (single isomer, unassigned) [Compound 23, rel-(2R*,3S*,4S*,5R*)-3-(3,4-difluoro-2-methoxyphenyl)-N-(6-(1-hydroxy-3-methoxypropyl)pyridin-3-yl)-4,5-dimethyl-5-(trifluoromethyl)tetrahydrofuran-2-carboxamide]
16 | 0.1 to 1 | COc1c([C@@H]2C[C@](C)(C(F)(F)F)O[C@H]2C(=O)Nc2ccc([C@H](O)CO)nc2)ccc(F)c1F (single isomer, unassigned) [Compound 26, rel-(2R,3S,5R)-3-(3,4-difluoro-2-methoxyphenyl)-N-(6-((S*)-1,2-dihydroxyethyl)pyridin-3-yl)-5-methyl-5-(trifluoromethyl)tetrahydrofuran-2-carboxamide]
17 | ≥ 1 | COc1c([C@H]2C[C@@](C)(C(F)(F)F)O[C@@H]2C(=O)Nc2ccc([C@H](O)CO)nc2)ccc(F)c1F (single isomer, unassigned) [Compound 27, rel-(2S,3R,5S)-3-(3,4-difluoro-2-methoxyphenyl)-N-(6-((S*)-1,2-dihydroxyethyl)pyridin-3-yl)-5-methyl-5-(trifluoromethyl)tetrahydrofuran-2-carboxamide]
18 | ≥ 1 | COc1c([C@H]2C[C@@](C)(C(F)(F)F)O[C@@H]2C(=O)Nc2cnc(C(O)CO)nc2)ccc(F)c1F (single isomer, unassigned) [Compound 28]
19 | 0.1 to 1 | COc1c([C@@H]2C[C@](C)(C(F)(F)F)O[C@H]2C(=O)Nc2cnc(C(O)CO)nc2)ccc(F)c1F (single isomer, unassigned) [Compound 29]
20 | ≥ 1 | CCOc1c([C@H]2C[C@@](C)(C(F)(F)F)O[C@@H]2C(=O)Nc2ccc([C@H](O)CO)nc2)ccc(F)c1F (single isomer, unassigned) [Compound 32, rel-(2S,3R,5S)-N-(6-((S*)-1,2-dihydroxyethyl)pyridin-3-yl)-3-(2-ethoxy-3,4-difluorophenyl)-5-methyl-5-(trifluoromethyl)tetrahydrofuran-2-carboxamide]
